# Measured values as given in the supplement of paper PMC4862054.
# Legend:
# BT-549 [1] = details: 72 h
# Summary of the method: (§1)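 For viability, cells received 2.5 µl CellTiter-Blue for 2 h at 37 °C and fluorescence was read at 560/590 nm. Before this, breast cancer cell lines in 20 µl suspension had been incubated for 72 h on 384-well plates pre-loaded with compound dissolved in 5 µl medium. EC50 was obtained from a percent-inhibition dose-response fit censored at the highest concentration, after normalisation of each plate to vehicle and a positive kill control; rows with a zero drug sensitivity score were discarded.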
# CAL-120 [2] = details: 72 h
# Summary of the method: as §1
# HCC1937 [3] = details: 72 h
# Summary of the method: as §1
# MDA-MB-436 [4] = details: 72 h
# Summary of the method: as §1
# SK-BR-3 [5] = details: 72 h
# Summary of the method: as §1
# BT-474 = assay: drug sensitivity score (DSS), CellTiter-Blue viability (DSS (AUC-based score)); higher = stronger viability inhibition; extreme values may be limits of the assay; details: incubation time: 72 h
# Experimental: (§2)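 DSRT with the CellTiter-Blue (resazurin reduction) viability readout, fluorescence 560/590 nm, 72 h incubation. Plates were normalised to DMSO and benzethonium chloride controls. DSS is computed from the area under the fitted dose-response curve (5 or 9 concentrations).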
# BT-549 [6] = assay: as above; details: incubation time: 72 h
# Experimental: as §2
# CAL-120 [7] = assay: as above; details: incubation time: 72 h
# Experimental: as §2
# CAL-148 = assay: as above; details: incubation time: 72 h
# Experimental: as §2
# CAL-51 = assay: as above; details: incubation time: 72 h
# Experimental: as §2
# CAL-85-1 = assay: as above; details: incubation time: 72 h
# Experimental: as §2
# DU-4475 = assay: as above; details: incubation time: 72 h
# Experimental: as §2
# HCC1143 = assay: as above; details: incubation time: 72 h
# Experimental: as §2
# HCC1599 = assay: as above; details: incubation time: 72 h
# Experimental: as §2
# HCC1937 [8] = assay: as above; details: incubation time: 72 h
# Experimental: as §2
# HDQ-P1 = assay: as above; details: incubation time: 72 h
# Experimental: as §2
# Hs578T = assay: as above; details: incubation time: 72 h
# Experimental: as §2
# MDA-MB-231 = assay: as above; details: incubation time: 72 h
# Experimental: as §2
# MDA-MB-436 [9] = assay: as above; details: incubation time: 72 h
# Experimental: as §2
# MDA-MB-453 = assay: as above; details: incubation time: 72 h
# Experimental: as §2
# MDA-MB-468 = assay: as above; details: incubation time: 72 h
# Experimental: as §2
# MFM-223 = assay: as above; details: incubation time: 72 h
# Experimental: as §2
# SK-BR-3 [10] = assay: as above; details: incubation time: 72 h
# Experimental: as §2
SMILES,"EC50, CellTiter-Blue viability (BT-549 [1]) [nM]","EC50, CellTiter-Blue viability (CAL-120 [2]) [nM]","EC50, CellTiter-Blue viability (HCC1937 [3]) [nM]","EC50, CellTiter-Blue viability (MDA-MB-436 [4]) [nM]","EC50, CellTiter-Blue viability (SK-BR-3 [5]) [nM]",drug sensitivity score (BT-474),drug sensitivity score (BT-549 [6]),drug sensitivity score (CAL-120 [7]),drug sensitivity score (CAL-148),drug sensitivity score (CAL-51),drug sensitivity score (CAL-85-1),drug sensitivity score (DU-4475),drug sensitivity score (HCC1143),drug sensitivity score (HCC1599),drug sensitivity score (HCC1937 [8]),drug sensitivity score (HDQ-P1),drug sensitivity score (Hs578T),drug sensitivity score (MDA-MB-231),drug sensitivity score (MDA-MB-436 [9]),drug sensitivity score (MDA-MB-453),drug sensitivity score (MDA-MB-468),drug sensitivity score (MFM-223),drug sensitivity score (SK-BR-3 [10])
COc1cc(Nc2ncc3c(n2)-c2ccc(Cl)cc2C(c2c(F)cccc2OC)=NC3)ccc1C(=O)O [MLN8237],918,593,24.6,145,14.9,4.4,8.32,10.7,15,18.1,11.9,22.9,10.4,2.39,17.8,14.2,14.7,10.4,6.09,16.6,15.8,9.51,16.7
C=CCNC1=C2C[C@@H](C)C[C@H](OC)[C@H](O)[C@@H](C)/C=C(\C)[C@H](OC(N)=O)[C@@H](OC)/C=C\C=C(/C)C(=O)NC(=CC1=O)C2=O [Tanespimycin],20.9,218,100,25.2,15.7,21.3,24.3,14.8,22.4,16.9,15.7,28.2,24.8,16.3,18.2,19.3,20.5,9.87,25.2,32.6,0,25.8,29.2
Cc1ccc(F)c(NC(=O)Nc2ccc(-c3cccc4[nH]nc(N)c34)cc2)c1 [Linifanib],,,,,,0,0,0,0,0,0,0,0,0,0,0,0,0,0,0,0,0,0
S=c1[nH]cnc2nc[nH]c12 [Mercaptopurine],,9910,1550,,,0,0,4.1,0,0.87,0,0,0,0,4.84,0,0,0,0,0,5.53,0,0
CN(C)C/C=C/C(=O)Nc1cc2c(Nc3ccc(F)c(Cl)c3)ncnc2cc1O[C@H]1CCOC1 [Afatinib],2700,836,1910,5410,7.53,23.5,5.88,4.96,5.66,1.9,13.1,0,0,0,7.41,15.3,4.14,7.75,3.02,21.3,13,3.47,31.5
CO[C@H]1C[C@@H]2CC[C@@H](C)[C@@](O)(O2)C(=O)C(=O)N2CCCC[C@H]2C(=O)O[C@H]([C@H](C)C[C@@H]2CC[C@@H](OC(=O)C(C)(CO)CO)[C@H](OC)C2)CC(=O)[C@H](C)/C=C(\C)[C@@H](O)[C@@H](OC)C(=O)[C@H](C)C[C@H](C)/C=C/C=C/C=C/1C [Temsirolimus],0.18,1.07,,5.05,0.92,12.1,18.1,16.4,25.6,22.2,14.7,15.7,11.1,0,0,7.62,17.3,0,5.67,31.8,13.1,20.8,17.9
C[C@]1(c2nc3c(C(N)=O)cccc3[nH]2)CCCN1 [Veliparib],,,,,,0,0,0,0,0,0,0,0,0,0,0,0,0,0,0,0,0,0
CC[C@]1(O)C[C@@H]2CN(CCc3c([nH]c4ccccc34)[C@@](C(=O)OC)(c3cc4c(cc3OC)N(C)[C@H]3[C@@](O)(C(=O)OC)[C@H](OC(C)=O)[C@]5(CC)C=CCN6CC[C@]43[C@@H]65)C2)C1 [Vinblastine],3.04,0.3,0.67,5.02,0.3,21.8,25.2,32,18.7,16.1,17.8,13.7,19.4,7.99,32,18.2,30.7,27.7,18.7,20,21.6,13.1,35.2
Nc1nc(Cl)nc2c1ncn2[C@H]1C[C@H](O)[C@@H](CO)O1 [Cladribine],839,923,73.4,799,884,0,3.51,3.94,0.812,0.39,0,1.23,3.82,0,8.9,0,0,7.23,1.7,0,0,0,1.21
Cc1c2oc3c(C)ccc(C(=O)N[C@@H]4C(=O)N[C@H](C(C)C)C(=O)N5CCC[C@H]5C(=O)N(C)CC(=O)N(C)[C@@H](C(C)C)C(=O)O[C@@H]4C)c3nc-2c(C(=O)N[C@@H]2C(=O)N[C@H](C(C)C)C(=O)N3CCC[C@H]3C(=O)N(C)CC(=O)N(C)[C@@H](C(C)C)C(=O)O[C@@H]2C)c(N)c1=O [Dactinomycin],1.27,1.09,2.17,6.66,2.91,17.7,32.8,30.8,34.1,29.7,30.9,38.4,27.4,20.8,21.8,28.5,33.6,30.8,27.9,30.5,31.4,20.1,28.9
COc1cccc2c1C(=O)c1c(O)c3c(c(O)c1C2=O)C[C@@](O)(C(=O)CO)C[C@@H]3O[C@H]1C[C@H](N)[C@H](O)[C@H](C)O1 [Doxorubicin],196,96.4,55.1,190,49.4,4.12,7.93,11.3,14.2,8.73,5.11,12.9,8.86,3.59,11.8,7,9.11,9.57,8.25,4.31,9.27,2.94,13.3
Clc1ccc(C(c2ccccc2Cl)C(Cl)Cl)cc1 (configuration not stated) [Mitotane],,,,,,0,0,0,0,0,0,0,0,0,0,0,0,0,0,0,0,0,0
N#CC[C@H](C1CCCC1)n1cc(-c2ncnc3[nH]ccc23)cn1 [Ruxolitinib],,,1650,,,0,0,0,0,0,0,0,0,0,1.92,0,0,0,0,0,0,0,0
C=CC[C@@H]1/C=C(\C)C[C@H](C)C[C@H](OC)[C@H]2O[C@@](O)(C(=O)C(=O)N3CCCC[C@H]3C(=O)O[C@H](/C(C)=C/[C@@H]3CC[C@@H](O)[C@H](OC)C3)[C@H](C)[C@@H](O)CC1=O)[C@H](C)C[C@@H]2OC [Tacrolimus],,,,,,0,0,0,0,0,0,0,0,0,0,0,0,0,0,0,0,0,0
OC[C@H]1O[C@@H](n2cnc3c2N=CNC[C@H]3O)C[C@@H]1O [Pentostatin],,,,,,0,0,0,0,0,0,0,0,0,0,0,0,0,0,0,0,0,0
CS(=O)(=O)c1ccc(C(=O)Nc2ccc(Cl)c(-c3ccccn3)c2)c(Cl)c1 [Vismodegib],,,3920,58.8,,0,0,0,0,0,0,0,0,0,1.01,0,0,0,4.6,0,0,0,0
